Patent US9023844B2, “Heterocyclylpyri (mi) dinylpyrazole as fungicidals” (Bayer Intellectual Property GmbH, priority 2011, dated 2015)
Like-named read-outs stand apart in the source and are kept apart here.

Legend:
[1] = Determination of log P values by HPLC on a reverse phase column (C18), EEC-Directive 79/831 Annex V.A8 (Methods A, B, C); assay type: physicochemical; conditions: for chromatographic logP: reverse phase C18 HPLC column
Method in brief: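 LogP was determined by C18 reverse-phase HPLC/UPLC with acetonitrile/water eluents containing formic acid. Method A used a 10–95% acetonitrile gradient over 4.25 min at 55 °C and 2.0 mL/min. Method B used 5–95% over 1.70 min at 55 °C and 2.0 mL/min, and Method C used 10–95% over 3.25 min at 40 °C and 0.8 mL/min, with MS detection.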

Sphaerotheca fuliginea = assay: Example A: Sphaerotheca test (cucumber) / preventive; assay type: in vivo
Uromyces appendiculatus = assay: Example B: Uromyces test (beans) / preventive; assay type: in vivo; conditions: in vivo
Leptosphaeria nodorum = assay: Example C: Leptosphaeria test (wheat) / preventive; assay type: in vivo
Pyrenophora teres = assay: Example D: Pyrenophora test (barley) / preventive; assay type: in vivo
Pyricularia oryzae = assay type: in vivo
Phytophthora infestans = assay type: in vivo
[2] = tested on: DON/Acetyl-DON production by Fusarium graminearum; assay: microbe, parasite or virus in culture; assay type: cell-based; conditions: at 50 μM; for inhibition at 50 µM: Fusarium graminearum, read-out: Inhibition of DON/AcDON in %
Fusarium graminearum [3] = assay: microbe, parasite or virus in culture; assay type: cell-based; conditions: for Growth inhibition of Fusarium graminearum in %: at 50 μM; for inhibition at 50 µM: Fusarium graminearum, read-out: Growth inhibition of Fusarium graminearum in %
Puccinia recondita = assay: Example E: Puccinia test (wheat) / preventive; assay type: in vivo
Plasmopara viticola = assay: Example H: Plasmopara test (grapevines) / preventive; assay type: in vivo
Septoria tritici = assay: Example J: Septoria tritici test (wheat) / preventive; assay type: in vivo
[4] = tested on: Fusarium nivale (var. majus); assay: Example K: Fusarium nivale (var. majus) test (wheat) / preventive; assay type: in vivo; conditions: 500 ppm of active ingredient, preventive spray, evaluated 5 days after inoculation
Protocol: After the spray coating has been dried, the plants are slightly injured by using a sandblast and afterwards they are sprayed with a conidia suspension of Fusarium nivale (var. majus).
The test is evaluated 5 days after the inoculation.

Fusarium graminearum [5] = assay type: in vivo
Venturia inaequalis = assay: Example I: Venturia test (apples) / preventive; conditions: 100 ppm of active ingredient, preventive spray, evaluated 10 days after inoculation
Protocol: After the spray coating has dried on, the plants are inoculated with an aqueous conidia suspension of the causal agent of apple scab (Venturia inaequalis) and then remain for 1 day in an incubation cabinet at approximately 20° C. and a relative atmospheric humidity of 100%.
The plants are then placed in a greenhouse at approximately 21° C. and a relative atmospheric humidity of approximately 90%.
The test is evaluated 10 days after the inoculation.

[6] = Method B (HPLC, reverse phase C18)
[7] = pH 2.7, values in the synthesis examples, HPLC, reverse phase C18, read-out: log P (pH 2.7)
[8] = 500 ppm of active ingredient, cucumber, preventive spray, evaluated 7 days after inoculation
[9] = 500 ppm of active ingredient, wheat, preventive spray, evaluated 7-9 days after inoculation
[10] = 500 ppm of active ingredient, barley, preventive spray, evaluated 7-9 days after inoculation
[11] = 500 ppm of active ingredient, rice, preventive spray, evaluated 7 days after inoculation
[12] = 100 ppm of active ingredient, tomatoes, preventive spray, evaluated 3 days after inoculation
[13] = Method A: HPLC, reverse phase C18, acetonitrile (0.1% formic acid)/water (0.09% formic acid) gradient
[14] = Method C (HPLC, reverse phase C18)

| Structure (SMILES) | LogP [1, 6] | efficacy (Sphaerotheca fuliginea; in vivo) [%] | efficacy (Uromyces appendiculatus) [%] | efficacy (Leptosphaeria nodorum; in vivo) [%] | efficacy (Pyrenophora teres; in vivo) [%] | efficacy (Pyricularia oryzae; in vivo) [%] | efficacy (Phytophthora infestans; in vivo) [%] | efficacy (Puccinia recondita; in vivo) [%] | efficacy (Plasmopara viticola; in vivo) [%] | efficacy (Septoria tritici; in vivo) [%] | efficacy [4] [%] | efficacy (Fusarium graminearum [5]; in vivo) [%] | efficacy (Venturia inaequalis) [%] | LogP [1, 14] | also measured |
| --- | --- | --- | --- | --- | --- | --- | --- | --- | --- | --- | --- | --- | --- | --- | --- |
| CC(=O)Nc1cc(-c2c(-c3ccc(F)cc3)nn3c2OCCC3)ccn1 [Example 2] | 1.22 | 100 | 74 | 88 | 100 | 90 | 92 | – | – | – | – | – | – | – | Inhibition of DON/AcDON in % [2]: 100%; Growth inhibition of Fusarium graminearum in % (Fusarium graminearum [3]): 57% |
| O=C(Nc1cc(-c2c(-c3ccc(F)cc3)nn3c2OCC3)ccn1)C1CC1 [Example 3, N-{4-[6-(4-fluorophenyl)-2,3-dihydropyrazolo[5,1-b][1,3]oxazol-7-yl]pyridin-2-yl}cyclopropanecarboxamide] | – | – | – | – | – | – | – | – | – | – | – | – | – | – | chromatographic logP ([1]; Method B (HPLC, reverse phase C18), read-out: LogP): 1.48; chromatographic logP [1, 7]: 1.48; efficacy (Sphaerotheca fuliginea; [8]): 93%; efficacy (Leptosphaeria nodorum; [9]): 88%; efficacy (Pyrenophora teres; [10]): 100%; efficacy (Pyricularia oryzae; [11]): 95%; efficacy (Phytophthora infestans; [12]): 92%; inhibition at 50 µM [2]: 98%; inhibition at 50 µM (Fusarium graminearum [3]): 57% |
| CCC(=O)Nc1cc(-c2c(-c3ccccc3)nn3c2OCCC3)ccn1 [Example 6] | 1.16 | 98 | 89 | 90 | 95 | 94 | 96 | 100 | 94 | 100 | 100 | 100 | 100 | – | – |
| CC(C)C(=O)Nc1cc(-c2c(-c3ccccc3)nn3c2OCCC3)ccn1 [Example 8] | 1.39 | 100 | 94 | 95 | 95 | 94 | 95 | 100 | 100 | 80 | 93 | 100 | 98 | – | – |
| CC(C)CC(=O)Nc1cc(-c2c(-c3ccccc3)nn3c2OCCC3)ccn1 [Example 11] | 1.66 | 100 | 94 | 100 | 100 | 94 | – | 100 | 86 | 70 | 100 | 100 | 100 | – | – |
| O=C(CC(F)(F)F)Nc1cc(-c2c(-c3ccccc3)nn3c2OCCC3)ccn1 [Example 17] | 1.98 | – | 94 | – | 95 | 94 | 95 | 100 | 100 | – | 100 | – | 100 | – | – |
| O=C(Nc1cc(-c2c(-c3ccc(F)cc3F)nn3c2OCCC3)ccn1)C1CCOCC1 [Example 43] | 1.39 | 100 | 92 | 70 | 95 | 94 | – | 100 | – | 88 | 88 | 100 | – | – | Inhibition of DON/AcDON in % [2]: 100%; Growth inhibition of Fusarium graminearum in % (Fusarium graminearum [3]): 89% |
| CCC(=O)N(C(C)=O)c1cc(-c2c(-c3ccc(F)cc3)nn3c2OCCC3)ccn1 [Example 52] | – | 95 | – | 80 | 95 | 95 | 95 | 95 | 84 | 100 | 100 | 100 | 98 | – | LogP [1, 13]: 2.4 |
| CCC(=O)N(C(=O)C1CC1)c1cc(-c2c(-c3ccc(F)cc3)nn3c2OCCC3)ccn1 [Example 54] | – | 100 | – | 80 | 95 | 90 | 99 | 95 | 100 | 100 | 100 | 100 | 95 | – | LogP [1, 13]: 2.77 |
| CC(=O)Nc1cc(-c2c(-c3ccccc3)nn3c2NCCC3)ccn1 [Example 55, N-[4-(2-phenyl-4,5,6,7-tetrahydropyrazolo[1,5-a]pyrimidin-3-yl)pyridin-2-yl]acetamide] | – | – | – | – | – | – | – | – | – | – | – | – | 93 | – | chromatographic logP ([1]; Method C (HPLC, reverse phase C18), read-out: LogP): 1.13; chromatographic logP [1, 7]: 1.13; efficacy (Sphaerotheca fuliginea; [8]): 88%; efficacy (Pyrenophora teres; [10]): 90%; efficacy (Pyricularia oryzae; [11]): 70%; efficacy (Phytophthora infestans; [12]): 91%; inhibition at 50 µM [2]: 100%; inhibition at 50 µM (Fusarium graminearum [3]): 100% |
| CC(=O)Nc1cc(-c2c(-c3ccc(F)cc3)nn3c2OC[Si](C)(C)C3)ccn1 [Example 61] | – | – | 84 | 78 | 95 | 70 | 71 | 75 | 100 | – | – | – | 96 | 2.01 | – |
| CCC(=O)Nc1cc(-c2c(-c3ccc(F)cc3)nn3c2OCCC3C)ccn1 (stereo not drawn) [Example 63, N-{4-[2-(4-fluorophenyl)-7-methyl-6,7-dihydro-5H-pyrazolo[5,1-b][1,3]oxazin-3-yl]pyridin-2-yl}propanamide] | – | – | – | – | – | – | – | – | – | – | 100 | – | 100 | – | chromatographic logP ([1]; Method A: HPLC, reverse phase C18, acetonitrile (0.1% formic acid)/water (0.09% formic acid) gradient, read-out: LogP): 1.61; chromatographic logP [1, 7]: 1.61; efficacy (Sphaerotheca fuliginea; [8]): 95%; efficacy (Pyrenophora teres; [10]): 100%; efficacy (Puccinia recondita; [9]): 80%; efficacy (Pyricularia oryzae; [11]): 95%; efficacy (Phytophthora infestans; [12]): 95%; efficacy (Plasmopara viticola; 100 ppm of active ingredient, grapevines, preventive spray, evaluated 6 days after inoculation): 95%; efficacy (Septoria tritici; 500 ppm of active ingredient, wheat, preventive spray, evaluated 21 days after inoculation): 94%; efficacy (Fusarium graminearum [5]; 500 ppm of active ingredient, barley, preventive spray, evaluated 5 days after inoculation): 88% |
| CC(C)C(=O)Nc1cc(-c2c(-c3ccc(F)cc3)nn3c2OC[Si](C)(C)C3)ccn1 [Example 76] | – | 95 | 94 | 75 | 95 | 90 | – | 95 | 100 | 86 | 100 | 86 | 100 | 2.14 | – |
| CCC(=O)Nc1cc(-c2c(-c3ccc(F)cc3)nn3cccnc23)ccn1 [Example 79] | – | 80 | – | – | 100 | – | 95 | – | 88 | – | – | – | 96 | 1.91 | – |
| C[Si]1(C)COc2c(-c3ccnc(NC(=O)C4CC4)c3)c(-c3ccc(F)cc3)nn2C1 [Example 81] | – | 98 | 94 | 75 | 90 | 95 | – | 100 | 100 | 88 | 100 | 100 | 99 | 2.18 | – |
| CCC(=O)Nc1cc(-c2c(-c3cccs3)nn3c2OC[Si](C)(C)C3)ccn1 [Example 82] | – | – | – | – | 95 | 70 | 85 | 70 | 100 | – | – | – | 94 | 1.81 | Inhibition of DON/AcDON in % [2]: 100%; Growth inhibition of Fusarium graminearum in % (Fusarium graminearum [3]): 100% |
| CC(C)C(=O)Nc1cc(-c2c(-c3cccs3)nn3c2OC[Si](C)(C)C3)ccn1 [Example 86] | – | – | 94 | – | 90 | 80 | 98 | 95 | 100 | – | – | – | 100 | 2.28 | Inhibition of DON/AcDON in % [2]: 99%; Growth inhibition of Fusarium graminearum in % (Fusarium graminearum [3]): 100% |
